How the values were obtained:
LXRα = molecular target: T1, LXRα (Homo sapiens, UniProt Q13133); assay: LXRα-specific LXRE-GFP reporter assay in Hep3B cells (NR1H2 knockout); assay type: cell-based; details: 48h of treatment, GFP by FACS
T1 construct: To measure the activity of the remaining isoform under treatment; endogenous in cells; host or cells: Hep3B (NR1H2 knockout, LXRE-GFP reporter)
T1 sequence (Q13133 1-447): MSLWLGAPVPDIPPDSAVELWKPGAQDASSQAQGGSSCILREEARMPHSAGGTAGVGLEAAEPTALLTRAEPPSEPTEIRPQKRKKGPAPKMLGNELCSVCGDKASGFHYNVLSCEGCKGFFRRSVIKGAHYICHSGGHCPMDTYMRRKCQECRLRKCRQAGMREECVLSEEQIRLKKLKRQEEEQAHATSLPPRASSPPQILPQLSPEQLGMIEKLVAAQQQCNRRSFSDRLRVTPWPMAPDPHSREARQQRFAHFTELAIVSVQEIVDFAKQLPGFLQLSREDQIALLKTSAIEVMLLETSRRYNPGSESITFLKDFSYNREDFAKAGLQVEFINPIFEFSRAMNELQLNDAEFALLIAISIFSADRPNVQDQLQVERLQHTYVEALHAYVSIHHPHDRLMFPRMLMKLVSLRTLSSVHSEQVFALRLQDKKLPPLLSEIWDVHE

LXRβ = molecular target: T2, LXRβ (Homo sapiens, UniProt P55055); assay: LXRβ-specific LXRE-GFP reporter assay in Hep3B cells (NR1H3 knockout); assay type: cell-based; details: 48h of treatment, GFP by FACS
T2 construct: To measure the activity of the remaining isoform under treatment; endogenous in cells; host or cells: Hep3B (NR1H3 knockout, LXRE-GFP reporter)
T2 sequence (P55055 1-460): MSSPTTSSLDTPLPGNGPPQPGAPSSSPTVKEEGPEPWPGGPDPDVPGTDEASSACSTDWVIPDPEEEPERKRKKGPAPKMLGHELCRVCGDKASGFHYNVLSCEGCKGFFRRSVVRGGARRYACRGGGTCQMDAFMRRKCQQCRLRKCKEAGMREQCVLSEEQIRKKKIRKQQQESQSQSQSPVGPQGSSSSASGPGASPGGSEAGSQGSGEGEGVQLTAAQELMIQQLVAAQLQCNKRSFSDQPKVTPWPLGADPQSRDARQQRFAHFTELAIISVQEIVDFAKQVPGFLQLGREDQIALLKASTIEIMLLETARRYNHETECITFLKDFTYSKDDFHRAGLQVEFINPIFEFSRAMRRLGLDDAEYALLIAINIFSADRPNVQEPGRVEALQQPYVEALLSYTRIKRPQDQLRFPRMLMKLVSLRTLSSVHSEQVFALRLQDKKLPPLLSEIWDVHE

Hep3B cells [1] = assay: Cell viability analysis in Hep3B cells (CellTiter-Glo); assay type: cell-based, human; details: 5d
Experimental: To determine the therapeutic efficacy of compound 40 in HCC cells, we next tested its effect on Hep3B cell viability in combination with the DFG-out Raf inhibitor sorafenib (2 μM).
(§1) For organoid treatment studies, digestion of organoids was performed using TrypLE Express (Gibco) supplemented with 100 μg/mL DNaseI and 10.5 μM Y-27632 dihydrochloride (Invitrogen) at 37 °C, and afterward, single-cells were plated in white 96 well plates (Sarstedt) in a mixture of 10% Matrigel (Growth Factor Reduced (GFR) Matrigel, Corning) in culture medium. Cell viability was determined after 5 days of treatment using the CellTiter-Glo 3D Cell Viability Assay Kit (Promega). Cell viability of Hep3B, AML12, and BNL CL.2 cells was determined after 5 days of treatment in white 96 well plates (Sarstedt) using the CellTiter-Glo 2.0 Cell Viability Assay Kit (Promega). AML12 and BNL CL.2 cells were also obtained from the American Type Culture Collection. The luminescence signal was measured using an […] M PLEX plate reader (Tecan) and the Tecan i-control software (v3.9.1). Sodium oleate (Selleckchem) was dissolved in methanol and added to cells at a final concentration of 200 μM.

Hep3B cells [2] = assay: Oxidative stress in Hep3B cells (CellROX Green Reagent, FACS); assay type: cell-based, human; details: 3 days, 3 μM LXR agonist + 1 μM sorafenib
Experimental: We previously described that our established lipotoxic therapy triggers oxidative stress and an ER stress response, which finally leads to apoptosis in tumor cells.[6]
The determination of oxidative stress levels was performed using CellROX Green Reagent from Thermo Fischer Scientific in Hep3B cells. Measurement of green fluorescence was performed using the FACS LSRFortessa cell analyzer (BD Bioscience, Flow Cytometry Core Facility Tuebingen) after 3 days of treatment. Data were collected using DIVA software (v9.0.1).

[3] = tested on: SOD1, GADD34 and CHOP (GADD153); assay: Western blot of oxidative stress and ER stress response factors in Hep3B cells; assay type: cell-based, human; details: 3 days, with 2 μM sorafenib
Experimental: Proteins were extracted from cells using RIPA buffer, separated by SDS-PAGE, and transferred to PVDF membranes (Amersham Hybond ECL). For protein detection, membranes were incubated with antibodies against LXRα (Novus Biologicals, NBP2–17186, dilution: 1:1000), LXRβ (Cell Signaling Technology, 13519S, clone: D6M9D, dilution: 1:1000), CHOP (Cell Signaling, 2895 (L63F7), dilution: 1:1000), GADD34 (Proteintech, 10449–1-AP, dilution: 1:1000), SOD1 (ThermoFisher Scientific, MA1–105, clone: 8B10, dilution: 1:1000), α-tubulin (Cell Signaling, 2125 clone: 11H10, dilution: 1:5000), and vinculin (Sigma-Aldrich V9131, clone: hVIN-1, dilution: 1:5000) and visualized using the ChemiDoc MP imaging system (Bio-Rad, ImageLab v5.2.1).

AML12 cells = assay: Cell viability analysis in untransformed liver cells AML12 (CellTiter-Glo); assay type: cell-based; details: AML12, 5d, with 2 μM sorafenib
Experimental: (§2) To further determine the therapeutic potential of compound 40, we analyzed the effect of a combinatorial lipotoxic therapy with this agonist in untransformed liver cells. We applied the well-established untransformed liver cell lines AML12 and BNL CL.2 and subjected them to treatment with 40 in combination with sorafenib.
as §1

BNL CL.2 cells = assay: Cell viability analysis in untransformed liver cells BNL CL.2 (CellTiter-Glo); assay type: cell-based; details: BNL CL.2, 5d, with 2 μM sorafenib
Experimental: as §2, §1

## O=C1C(Nc2ccc(N3CCCCC3)cc2)=C(c2ccccc2)C(=O)N1Cc1ccccc1 [Compound 40, 1-Benzyl-3-phenyl-4-((4-(piperidin-1-yl)phenyl)amino)-1H-pyrrole-2,5-dione]
LXRα
  EC50: 27 nM
LXRβ
  EC50: 631 nM
Hep3B cells [1]; 2 μM sorafenib ± 200 μM sodium oleate
  effect of sodium oleate on efficacy of the combination with sorafenib: strongly diminished the therapeutic efficacy
Hep3B cells [1]; without sorafenib
  therapeutic effect on cell viability, monotherapy: did not show a significant therapeutic effect
Hep3B cells [2]
  oxidative stress induction in combination with sorafenib: more efficient in inducing oxidative stress than GW3965 (2), GSK3987 (3), and AZ876 (4)
[3]
  induction of SOD1, GADD34 and CHOP: strong induction of all factors
AML12 cells
  sensitivity of untransformed liver cells to combination therapy (cell viability): only very low sensitivity
BNL CL.2 cells
  sensitivity of untransformed liver cells to combination therapy (cell viability): only very low sensitivity

Reference: paper PMC11997999, “Uncovering α-Selectivity for Liver X Receptor Agonists for Lipotoxic Cancer Therapies” (Journal of Medicinal Chemistry, 2025)
